Measurements: patent publication US20150030683A1, “FORMULATIONS AND METHODS FOR THE TREATMENT OR PROPHYLAXIS OF PRE-MCI AND/OR PRE-ALZHEIMER'S CONDITIONS” (BUCK INSTITUTE FOR RESEARCH ON AGING, priority 2012, published 2015)

What was measured:
[1] = Degradation in brain tissue; format: in vitro ADME; settings: probably reduced at the disulfide bond
[2] = Brain uptake testing (PK): plasma and brain levels by LC/MS/MS; set-up: species or system mice; settings: mouse, in vivo, sc; for Kp: 10 mg/kg
Description: In general, CNS exposure studies consisted of collection of heparinized plasma and brains after treatment with tropisetron, nimetazepam, disulfiram and honokiol following subcutaneous (sc) administration of the molecules at 10 mg/kg. Plasma and brain levels of the agent(s) were determined by quantitative LC/MS/MS methodology, conducted at Integrated Analytical Solutions (on the internet at ianalytical.net). Plasma samples were precipitated with acetonitrile:methanol (1:1) cocktail containing an internal standard. The brain samples were homogenized directly in ethylacetate or extracted from 5M guanidine homogenates using the liquid-liquid method. The resulting supernatant were evaporated to dryness and subjected to the LC/MS/MS analysis. For each agent 3 mice were used for analysis. The brain-to-plasma ratios and brain levels were then be calculated to identify the best candidate(s) for further testing.

[3] = test system: sAPPα, Aβ40 and Aβ42 levels; experiment: Aβ40/42, sAPPα levels in brain (PD) of Alzheimer's disease transgenic mice (PDAPP model); format: in vivo; settings: Tg mice; for sAPPα levels in hippocampus (Hip) and entorhinal cortex (ECx) / Aβ40 levels / Aβ42 levels: 10 mpk sc, 5 days
Description: […]® kits from Perkin Elmer (PE) were used to quantify sAPPα (cat#: AL254C), sAPPβ (cat#: AL232C), Aβ40 (cat #: AL275C), Aβ42 (cat #: AL276C) and Tau (cat#: AL271C) from brain homogenates. The samples are added to an AlphaPlate-384 (cat#: 6005350). Twenty microliters (μl) of acceptor bead antibody mix was added to each five μl cerebrospinal fluid (CSF) sample and allowed to incubate for one hour at room temperature. Next, 25 μl of donor beads were added and allowed to incubate in the dark for 30 minutes at room temperature. Fluorescence was then measured on an EnsPire 96-well plate reader (Perkin-Elmer).
ELISA kits from Invitrogen were also used to quantify Aβ1-40 (KHB3481) and Aβ1-42 (KHB3544) in duplicate from the CSF samples stored at −80° C. For assay, samples were thawed on ice and BSL-2 precautions practiced at all times. For the human Aβ 1-42 ultrasensitive ELISA, samples were diluted 1:2 (50 μl CSF plus 50 μl kit-provided standard diluent buffer). For the human Aβ1-40 ELISA, samples were diluted 1:15 (6.7 μl CSF plus […] of standard diluent buffer). Assays were performed according to manufacturer's instructions. In short, standards and samples were added to a plate pre-coated with a monoclonal capture antibody specific for the amino terminus of Hu Aβ. The samples were co-incubated with a rabbit detection antibody (Ab) specific for the carboxy terminus of the Aβ species being assayed for 3 hr at room temperature (Aβ 1-40) to overnight at 4° (Aβ 1-42) with gentle rocking After washing, bound rabbit Ab was detected using a horseradish peroxidase-labeled anti-rabbit secondary Ab. After washing again, bound HRP-anti rabbit Ab was detected colorimetrically (Spectramax 190, Molecular Devices) by the addition of a substrate solution. 1 mM 4-(2-Aminoethyl)benzenesulfonyl fluoride hydrochloride (AEBSF) protease inhibitor (101500, Calbiochem) was added to standards and samples.
In general, as part of the CNS exposure studies in Alzheimer's disease transgenic (Tg) mice (e.g., the PDAPP mouse model of Alzheimer's disease), tropisetron, nimetazepam, disulfiram and honokiol effects on biomarkers were also measured. In case of tropisetron the testing was done at 0.3 mpk, while in case of the other agent(s) (e.g., nimetazepam, disulfiram and honokiol) it was done at 10 mpk. From the collected brains the hippocampi were dissected. Levels of sAPPα, and Aβ1-40 and Aβ1-42 were measured by […] assay ([…] Perkin-Elmer), and Aβ1-42 (Invitrogen, sensitive ELISA kit) in brain homogenates of Tg mice. All procedures involved have been described (Galavan 2006, Proc Natl Acad Sci USA, 103, 7130-7135). […] The brain-to-plasma ratio (PK) of tropisetron and sAPPalpha/Aβ42 ratios (PD) were then determined.

MBP-eAPP230-624 = target: T1, MBP-eAPP230-624 (Homo sapiens, UniProt P05067); experiment: Small-angle X-ray scattering of MBP-eAPP230-624 incubated with the agent; format: binding; settings: for MWcalc/MWseq / Rg (radius of gyration) / Dmax (maximum dimension): MBP-eAPP230-624 incubated with 50 μM agent, 4° C., 1 hour; for MWcalc/MWseq: ± 0.2; for Rg (radius of gyration): ± 2; for Dmax (maximum dimension): ± 10; for Binding to APP (MBP-eAPP230-624) and effect on conformation/dimerization: small-angle X-ray scattering, 50 μM agent
T1 construct: purified MBP-eAPP230-624 were incubated with 50 μM Disulfiram or 50 μM Sulfiram
T1 sequence (P05067 230-624 isoform P05067-4): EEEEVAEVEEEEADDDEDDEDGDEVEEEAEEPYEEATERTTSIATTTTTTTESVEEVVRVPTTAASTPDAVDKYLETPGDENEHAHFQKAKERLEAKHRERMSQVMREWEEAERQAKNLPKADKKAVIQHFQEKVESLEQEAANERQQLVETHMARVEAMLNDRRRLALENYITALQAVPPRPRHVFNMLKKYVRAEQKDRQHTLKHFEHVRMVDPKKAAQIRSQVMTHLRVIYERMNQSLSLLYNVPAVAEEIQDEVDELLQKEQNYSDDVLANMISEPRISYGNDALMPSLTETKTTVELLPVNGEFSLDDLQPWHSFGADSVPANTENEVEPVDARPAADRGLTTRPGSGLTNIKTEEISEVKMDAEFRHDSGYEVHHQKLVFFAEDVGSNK
Description: To 100 μg of purified MBP-eAPP230-624 were incubated with 50 μM Disulfiram or 50 μM Sulfiram in 20 mM sodium phosphate pH 7.4, 137 mM sodium chloride, 0.05% dimethyl sulfoxide at 4° C. for 1 hour. The control sample was incubated in the buffer alone. The samples were then concentrated to approximately 1.5 mg/ml using […] NML concentrators. Small-angle X-ray scattering data were collected using protein concentrations in the range of 0.25-1.5 mg/ml and an X-ray wavelength of 1.11 Å at beam line 12.3.1 (Advanced Light Source). Samples of the filtrate were used for buffer subtraction. Data were integrated with software customized for the beam line and processed with the program PRIMUS (Konarev (2003) Journal of Applied Crystallography 36, 1277-1282). The program GNOM (Svergun (1992) J. Appl. Crystallogr. 25, 495-503) was used to calculate the maximum dimension and the radius of gyration and to estimate the intensity of the scattering at zero angle for higher concentration samples. The molecule weight of each protein was calculated by comparing to the scattering of proteins of known molecule weight.
The apparent drop in molecular weight and maximum dimension (Dmax) are consistent with both sulfiram and disulfiram disrupting the MBP-eAPP230-624 dimers.

[4] = test system: 7W cells stably transfected with APP; experiment: […] assay in 7W APP transfected cells; format: cell-based; settings: 1 μM agent, 24 h
Description: 7W CHO cells were seeded at 50,000 cells/well in a 96 wells plate for 24 h. Then their medium was changed for fresh medium supplemented with 1 μM of the agent(s) of interest (e.g., tropisetron, disulfiram, honokiol, and/or nimetazepam). After 24 h, 20 μl of the medium was added to 2 μl of the complete protease inhibitor with 1 μM EDTA and kept at 4° C. until analysis. 2 μl of that medium was treated with the Perkin Elmer (PE) […]® Aβ kit to determine the amount of Aβ42 secreted by the cells in 24 h using the PE-Enspire reader. Another aliquot of 2 μl of the medium was diluted with 50 μl of the PE […]® buffer and was treated with the PE […]® sAPPαkit to determine the amount of sAPPαsecreted by the cells in 24 h. For the assay, 2 μl of the final mixture was treated with the acceptor bead and the donor antibody followed by addition of the donor beads and the […]® signal was measured using a PE-Enspire reader. For measurement of APPneo, the 50,000 cells were treated after seeding with fresh medium supplemented with or without the agent(s), but without fetal bovine serum (FBS), in order to induce the formation of the APPneo fragment. After 24 h the medium was removed, the cells on the bottom of the wells were washed three times with phosphate buffered saline (PBS) and then lysed with 50 μl of the Perkin Elmer […]® buffer and with 10% of the complete protease inhibitor with EDTA. […]

[5] = known for the benzodiazepine; cited from earlier work

With `CCN(CC)C(=S)SSC(=S)N(CC)CC` [Disulfiram, 1,1′,1″,1′″-[disulfanediylbis(carbonothioylnitrilo)]tetraethane] the “Stability in brain tissue” value [1] was “degrades rapidly”, the “blood-brain-barrier / brain penetration” value [2] was “low blood-brain-barrier penetration” and the Kp [2] was under 0.1. The Aβ levels ([3]; 10 mpk) was “no changes”, the “sAPPα levels in hippocampus (Hip) and entorhinal cortex (ECx)” value (shortened to “sAPPα levels in hippocampus”) [3] was “no changes” and the MWcalc/MWseq (MBP-eAPP230-624) was 1.5. For the same compound, the “Rg (radius of gyration)” value (MBP-eAPP230-624) was 51 Å, the “Dmax (maximum dimension)” value (MBP-eAPP230-624) was 160 Å and the “Binding affinity compared with sulfiram” value (MBP-eAPP230-624; inferred from greater effect in X-ray scattering) was “higher binding affinity”. The “Binding to APP (MBP-eAPP230-624) and effect on conformation/dimerization” value (from here on “Binding to APP … on conformation/dimerization”) (MBP-eAPP230-624) was “can bind to APP and disrupt APP dimerization”, the “Binding to APP … on conformation/dimerization” value (MBP-eAPP230-624; listed as disulfiram) was “bind to MBP-eAPP230-624 and alter the conformation of the protein” and the “sAPPα levels secreted by 7W cells” value [4] was “increase”.
In the case of `C=CCc1ccc(O)c(-c2ccc(O)c(CC=C)c2)c1` [Honokiol, 2-(4-hydroxy-3-prop-2-enyl-phenyl)-4-prop-2-enyl-phenol], the “blood-brain-barrier / brain penetration” value [2] is reported as “penetrates the brain well”, the Kp [2] is reported as about 1 and the Aβ40 levels [3] is reported as “No significant changes”. The Aβ42 levels [3] was “No significant changes” and the “sAPPα levels in hippocampus” value [3] was “no significant increase”.
For `CN1C(=O)CN=C(c2ccccc2)c2cc([N+](=O)[O-])ccc21` [Nimetazepam, 2-methyl-9-nitro-6-phenyl-2,5-diazabicyclo [5.4.0]undeca-5,8,10,12-tetraen-3-one], the Aβ40 levels [3] was “No significant changes”, the Aβ42 levels [3] was “No significant changes” and the “sAPPα levels in hippocampus” value ([3]; 10 mg/kg) was “significant increase”. For the same compound, the “sAPPα levels in hippocampus” value ([3]; listed as nimetazepam, 10 mg/kg) was “increase” and the blood-brain-barrier crossing [5] was “known to cross the blood-brain-barrier well”.
For `CCN(CC)C(=S)SC(=S)N(CC)CC` [Sulfiram], the MWcalc/MWseq (MBP-eAPP230-624) was 1.7, the “Rg (radius of gyration)” value (MBP-eAPP230-624) was 53 Å and the “Dmax (maximum dimension)” value (MBP-eAPP230-624) was 170 Å. For the same compound, the “Binding to APP … on conformation/dimerization” value (MBP-eAPP230-624) was “bind to MBP-eAPP230-624 and alter the conformation of the protein”.
